Patent publication US12570648B2, “6,7-dihydro-5H-pyrido[2,3-c]pyridazine derivatives and related compounds as Bcl-xL protein inhibitors and pro-apoptotic agents for treating cancer” (LES LABORATOIRES SERVIER, priority 2019, dated 2026)
pIC50, pKi: −log10 of the molar value.

What was measured:
[1] = target: GST(1-218)-(FACTOR_XA)-hsBCLXL(2-209) (Homo sapiens (Human), UniProt Q07817); test: Fluorescence polarisation assay; type: binding
Method: Fluorescence polarization measures the rotation of a fluorescing species in solution, the larger the molecule the more polarized the fluorescence emission.
(GST UniProtKB® primary accession number P08515 and BCLXL UniProtKB® primary accession number Q07817-1), • resulting in an increase in anisotropy. If a compound is added which competitively binds to the same site as the probe, thereby releasing it, anisotropy decreases due to the increased amount of free probe.
An 11-point serial dilution of each compound was prepared in DMSO, the final buffer conditions were 10 mM 4-(2-hydroxyethyl)-1-piperazineethanesulfonic acid [HEPES], 150 mM NaCl, 0.05% Tween 20, pH 7.4 and 5% DMSO. The final protein concentration in the assay was 20 nM with the fluorescent probe present at 10 nM. […] 1; 37 (WebServer issue): W441-W445.

H146 cells = test: H146 cell viability using MTT assay; type: cell-based; details: Homo sapiens, NCI-H146, 48 h exposure
Summary of the method: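 IC50 comes from four-parameter fits of optical density at 540 nm. Readout used 4 h MTT reduction followed by overnight SDS/HCl solubilisation, after 48 h compound exposure across nine 3.16-fold dilutions in triplicate. Culture medium was RPMI 1640 with 10% heat-inactivated FBS, antibiotics and L-glutamine.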

MOLT-4 cells = test: MOLT-4 cell viability using MTT assay; type: cell-based; details: Homo sapiens, MOLT-4, 48 h, 48 h exposure
Method: MTT colorimetric assay is based on the mitochondrial reduction of tetrazolium salt by living cells.
Cells were cultured at 37° C. in a humidified atmosphere containing 5% CO2. […] At the end of incubation time, 15 μL of MTT solution (5 mg/ml) were added per well and the cells were incubated for another 4 h. […] IC50s were calculated using standard four-parametric curve fitting.

[2] = target: His-His-(EK)-hsBCLXL(2-197)[N197C] (Homo sapiens (Human), UniProt Q07817, N197C); test: Fluorescence quenching assay; type: binding; details: 1 nM Cy5-labelled protein, 400 nM PUMA peptide, 2 hours at 23° C.; KI determined from IC50
Sequence of His-His-(EK)-hsBCLXL(2-197)[N197C] (Q07817 2-197 N197C): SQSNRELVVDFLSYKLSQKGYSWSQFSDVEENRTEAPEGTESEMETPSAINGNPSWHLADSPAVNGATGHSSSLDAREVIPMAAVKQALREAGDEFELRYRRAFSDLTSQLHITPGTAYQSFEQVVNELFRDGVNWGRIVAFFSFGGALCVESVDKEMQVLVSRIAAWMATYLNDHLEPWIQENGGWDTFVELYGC
Summary of the method: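 Ki values converted from IC50s, measured as fluorescence increase (Ex 620/Em 680 nm) after 2 h at 23° C. Compounds were titrated over 11 points against 1 nM Cy5-BCL-xL and 400 nM quencher-tagged PUMA peptide in pH 7.4 HEPES (10 mM), 150 mM NaCl, 0.05% Tween 20, 5% DMSO.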

Sequence of GST(1-218)-(FACTOR_XA)-hsBCLXL(2-209) (Q07817 other isoform, or with tags, fused parts or gaps): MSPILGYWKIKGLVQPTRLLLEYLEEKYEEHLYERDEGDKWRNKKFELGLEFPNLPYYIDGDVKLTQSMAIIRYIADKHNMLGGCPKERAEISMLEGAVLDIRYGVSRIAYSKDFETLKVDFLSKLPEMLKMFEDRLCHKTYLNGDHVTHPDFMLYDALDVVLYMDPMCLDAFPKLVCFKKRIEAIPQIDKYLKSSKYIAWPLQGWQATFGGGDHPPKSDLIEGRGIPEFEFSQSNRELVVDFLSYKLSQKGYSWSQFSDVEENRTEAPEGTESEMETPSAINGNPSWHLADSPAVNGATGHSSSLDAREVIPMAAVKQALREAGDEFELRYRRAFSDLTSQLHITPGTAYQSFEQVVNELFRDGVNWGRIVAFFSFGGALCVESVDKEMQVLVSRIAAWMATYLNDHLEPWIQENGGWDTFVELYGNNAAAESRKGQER

| Compound | pKi [1] | pIC50 (H146 cells) | pIC50 (MOLT-4 cells) | pKi [2] |
| --- | --- | --- | --- | --- |
| O=C(O)c1csc(N2CCCc3cc(Nc4nc5ccccc5s4)ccc32)n1 [Example 1, 2-{6-[(1,3-Benzothiazol-2-yl)amino]-1,2,3,4-tetrahydroquinolin-1-yl}-1,3-thiazole-4-carboxylic acid] | 4.43 | – | – | – |
| O=C(O)c1csc(-n2ccc3cc(Nc4nc5ccccc5s4)ccc32)n1 [Example 2, 2-{5-[(1,3-Benzothiazol-2-yl)amino]-1H-indol-1-yl}-1,3-thiazole-4-carboxylic acid] | < 5.00 | – | – | – |
| O=C(O)c1csc(N2CCc3cc(Nc4nc5ccccc5s4)ccc32)n1 [Example 3, 2-{5-[(1,3-Benzothiazol-2-yl)amino]-2,3-dihydro-1H-indol-1-yl}-1,3-thiazole-4-carboxylic acid] | 4.44 | – | – | – |
| O=C(O)c1csc(N2CCOc3cc(Nc4nc5ccccc5s4)ccc32)n1 [Example 4, 2-{7-[(1,3-Benzothiazol-2-yl)amino]-3,4-dihydro-2H-1,4-benzoxazin-4-yl}-1,3-thiazole-4-carboxylic acid] | < 5.00 | – | – | – |
| O=C(O)c1cccc(-n2ccc3cc(Nc4nc5ccccc5s4)ccc32)n1 [Example 5, 6-{5-[(1,3-Benzothiazol-2-yl)amino]-1H-indol-1-yl}pyridine-2-carboxylic acid] | < 5.00 | – | – | – |
| O=C(O)c1csc(-n2ccc3cc(Nc4nc5ccccc5s4)cnc32)n1 [Example 6, 2-{5-[(1,3-Benzothiazol-2-yl)amino]-1H-pyrrolo[2,3-b]pyridin-1-yl}-1,3-thiazole-4-carboxylic acid] | < 5.00 | – | – | – |
| O=C(O)c1csc(-n2ccc3cc(Nc4nc5ccccc5s4)ncc32)n1 [Example 7, 2-{5-[(1,3-Benzothiazol-2-yl)amino]-1H-pyrrolo[2,3-c]pyridin-1-yl}-1,3-thiazole-4-carboxylic acid] | 5.00 | – | – | – |
| O=C(O)c1csc(-n2ccc3cc(Nc4nc5ccccc5s4)nnc32)n1 [Example 8, 2-{3-[(1,3-Benzothiazol-2-yl)amino]-7H-pyrrolo[2,3-c]pyridazin-7-yl}-1,3-thiazole-4-carboxylic acid] | 5.96 | – | – | – |
| O=C(O)c1nc(-n2ccc3cc(Nc4nc5ccccc5s4)nnc32)sc1CCCOc1ccccc1F [Example 9, 2-{3-[(1,3-Benzothiazol-2-yl)amino]-7H-pyrrolo[2,3-c]pyridazin-7-yl}-5-[3-(2-fluorophenoxy)propyl]-1,3-thiazole-4-carboxylic acid] | 7.89 | 5.63 | – | – |
| O=C(O)c1csc(N2CCc3cc(Nc4nc5ccccc5s4)nnc32)n1 [Example 10, 2-{3-[(1,3-Benzothiazol-2-yl)amino]-5H,6H,7H-pyrrolo[2,3-c]pyridazin-7-yl}-1,3-thiazole-4-carboxylic acid] | 6.68 | < 4.82 | < 4.82 | – |
| O=C(O)c1csc(N2CCCc3cc(Nc4nc5ccccc5s4)nnc32)n1 [Example 12, 2-{3-[(1,3-Benzothiazol-2-yl)amino]-5H,6H,7H,8H-pyrido[2,3-c]pyridazin-8-yl}-1,3-thiazole-4-carboxylic acid] | 7.52 | – | – | – |
| Cc1c(Nc2nc3ccccc3s2)nnc2c1CCN2c1nc(C(=O)O)c(-c2cnn(CC34CC5CC(CC(C5)C3)C4)c2C)s1 [Example 13, 5-{1-[(Adamantan-1-yl)methyl]-5-methyl-1H-pyrazol-4-yl}-2-{3-[(1,3-benzothiazol-2-yl)amino]-4-methyl-5H,6H,7H-pyrrolo[2,3-c]pyridazin-7-yl}-1,3-thiazole-4-carboxylic acid] | 8.04 | 6.10 | 6.90 | – |
| COCCCC1(Cn2ncc(-c3sc(N4CCc5c4nnc(Nc4nc6ccccc6s4)c5C)nc3C(=O)O)c2C)CCCCCCC1 [Example 14, 2-{3-[(1,3-Benzothiazol-2-yl)amino]-4-methyl-5H,6H,7H-pyrrolo[2,3-c]pyridazin-7-yl}-5-(1-{[1-(3-methoxypropyl)cyclooctyl]methyl}-5-methyl-1H-pyrazol-4-yl)-1,3-thiazole-4-carboxylic acid] | 8.26 | 5.51 | 6.34 | – |
| Cc1c(Nc2nc3ccccc3s2)nnc2c1CCCN2c1nc(C(=O)O)cs1 [Example 15, 2-{3-[(1,3-Benzothiazol-2-yl)amino]-4-methyl-5H,6H,7H,8H-pyrido[2,3-c]pyridazin-8-yl}-1,3-thiazole-4-carboxylic acid] | 8.64 | 5.59 | 5.98 | – |
| CC1Cc2cc(Nc3nc4ccccc4s3)nnc2N1c1nc(C(=O)O)cs1 (stereo not drawn) [Example 16, 2-{3-[(1,3-Benzothiazol-2-yl)amino]-6-methyl-5H,6H,7H-pyrrolo[2,3-c]pyridazin-7-yl}-1,3-thiazole-4-carboxylic acid] | 6.92 | – | – | – |
| COCCCC1(Cn2ncc(-c3sc(N4CCc5c4nnc(Nc4nc6ccccc6s4)c5C)nc3C(=O)O)c2C)CCCCC1 [Example 17, 2-{3-[(1,3-Benzothiazol-2-yl)amino]-4-methyl-5H,6H,7H-pyrrolo[2,3-c]pyridazin-7-yl}-5-(1-{[1-(3-methoxypropyl)cyclohexyl]methyl}-5-methyl-1H-pyrazol-4-yl)-1,3-thiazole-4-carboxylic acid] | 8.70 | 6.41 | 6.89 | – |
| Cc1c(Nc2nccs2)nnc2c1CCN2c1nc(C(=O)O)cs1 [Example 18, 2-{4-Methyl-3-[(1,3-thiazol-2-yl)amino]-5H,6H,7H-pyrrolo[2,3-c]pyridazin-7-yl}-1,3-thiazole-4-carboxylic acid] | 5.30 | – | – | – |
| Cc1nc(Nc2nnc3c(c2C)CCN3c2nc(C(=O)O)cs2)sc1C [Example 19, 2-{3-[(4,5-Dimethyl-1,3-thiazol-2-yl)amino]-4-methyl-5H,6H,7H-pyrrolo[2,3-c]pyridazin-7-yl}-1,3-thiazole-4-carboxylic acid] | 5.48 | – | – | – |
| Cc1c(Nc2nc3ccccc3s2)nnc2c1CCN2c1cccc(C(=O)O)n1 [Example 20, 6-{3-[(1,3-Benzothiazol-2-yl)amino]-4-methyl-5H,6H,7H-pyrrolo[2,3-c]pyridazin-7-yl}pyridine-2-carboxylic acid] | 7.07 | 5.51 | 6.79 | – |
| Cc1c(Nc2nc3ccccc3s2)nnc2c1CCCN2c1cccc(C(=O)O)n1 [Example 21, 6-{3-[(1,3-Benzothiazol-2-yl)amino]-4-methyl-5H,6H,7H,8H-pyrido[2,3-c]pyridazin-8-yl}pyridine-2-carboxylic acid] | 5.80 | < 4.82 | 5.37 | – |
| Cc1c(Nc2nc3ccccc3s2)nnc2c1CCCCN2c1nc(C(=O)O)cs1 [Example 25, 2-{3-[(1,3-Benzothiazol-2-yl)amino]-4-methyl-5H,6H,7H,8H,9H-pyridazino[3,4-b]azepin-9-yl}-1,3-thiazole-4-carboxylic acid] | 6.92 | – | – | – |
| Cc1c(Nc2nc3ccccc3s2)nnc2c1CCCN2c1cccc(C(=O)O)c1 [Example 26, 3-{3-[(1,3-Benzothiazol-2-yl)amino]-4-methyl-5H,6H,7H,8H-pyrido[2,3-c]pyridazin-8-yl}benzoic acid] | 4.82 | < 4.82 | ≤ 4.87 | – |
| O=C(O)c1csc(N2CCc3c2nnc(Nc2nc4ccccc4s2)c3C2CC2)n1 [Example 28, 2-{3-[(1,3-Benzothiazol-2-yl)amino]-4-cyclopropyl-5H,6H,7H-pyrrolo[2,3-c]pyridazin-7-yl}-1,3-thiazole-4-carboxylic acid] | 7.85 | 5.50 | 6.06 | – |
| Cc1c(Nc2nc3ccccc3s2)nnc2c1CCCCN2c1ccc(-c2cnn(CC34CC5CC(CC(C5)C3)C4)c2C)c(C(=O)O)n1 [Example 29, 3-{1-[(Adamantan-1-yl)methyl]-5-methyl-1H-pyrazol-4-yl}-6-{3-[(1,3-benzothiazol-2-yl)amino]-4-methyl-5H,6H,7H,8H,9H-pyridazino[3,4-b]azepin-9-yl}pyridine-2-carboxylic acid] | 8.02 | – | – | – |
| CNCC#Cc1ccc(OCCCc2sc(N3CCCc4c3nnc(Nc3nc5ccccc5s3)c4C)nc2C(=O)O)c(F)c1 [Example 32, 2-{3-[(1,3-Benzothiazol-2-yl)amino]-4-methyl-5H,6H,7H,8H-pyrido[2,3-c]pyridazin-8-yl}-5-(3-{2-fluoro-4-[3-(methylamino)prop-1-yn-1-yl]phenoxy}propyl)-1,3-thiazole-4-carboxylic acid] | > 9.00 | – | 9.01 | 11.34 |
| Cc1c(Nc2nc3ccccc3s2)nnc2c1C[C@@H](O)CN2c1nc(C(=O)O)cs1 [Example 33, 2-[(6R)-3-[(1,3-Benzothiazol-2-yl)amino]-6-hydroxy-4-methyl-5H,6H,7H,8H-pyrido[2,3-c]pyridazin-8-yl]-1,3-thiazole-4-carboxylic acid] | 8.26 | – | – | 8.85 |
